How the values were obtained:
Format in all cases: in vivo
[1] = system: Puccinia recondita; assay: Curative action against Puccinia recondita on wheat (wheat leaf rust); conditions: 16 ppm, curative spray 1 day after inoculation, wheat 'Kanzler', 7 days; untreated 100%
[2] = system: Botrytis cinerea; assay: Action against Botrytis cinerea on bell pepper leaves; conditions: 250 ppm, spray 1 day before inoculation, bell pepper seedlings, after 5 days; untreated 80%
Excerpt: The active compounds, separately or together, were formulated as a 10% emulsion in a mixture of 70% by weight of cyclohexanone, 20% by weight of Nekanil® LN (Lutensol® AP6, wetting agent having emulsifying and dispersant action based on ethoxylated alkylphenols) and 10% by weight of Wettol® EM (nonionic emulsifier based on ethoxylated castor oil) and diluted with water to the desired concentration.
Bell pepper seedlings of the variety “Neusiedler Ideal Elite” were, after 4 to 5 leaves were well developed, sprayed to run-off point with an aqueous active compound formulation which had been made up from a stock solution consisting of 10% of active compound, 63% of cyclohexanone and 27% of emulsifier. The next day, the treated plants were inoculated with a spore suspension of Botrytis cinerea which contained 1.7×10^6 spores/ml in an aqueous 2% strength biomalt solution. The test plants were subsequently placed in a climatized chamber at 22-24° C. and high atmospheric humidity. After 5 days, the extent of the fungal infection on the leaves could be determined visually in %.

[3] = system: Pyricularia oryzae; conditions: 16 ppm, protective spray 1 day before inoculation, rice 'Tai-Nong 67', 6 days; untreated 90%

Compound | infection (extent of rust fungus development on the leaves) [1] | infection (extent of fungal infection on the leaves) [2] | infection (extent of development of the disease on the leaves) [3]
CO/N=C(/C1=NOCCO1)c1ccccc1COc1ccn(-c2ccc(Cl)cc2)n1 [Compound I-1, (ortho-[1-{4-chlorophenyl}-pyrazol-3-yl-oxymethyl]-phenyl)(5,6-dihydro-[1,4,2]dioxazin-3-yl)methanone O-methyl oxime] | no infection | 3% | 10%
CO/N=C(/C(=O)OC)c1ccccc1COc1ccn(-c2ccc(Cl)cc2)n1 [Compound A] | 60% | 40% | –
CO/N=C(/C1=NOCCO1)c1ccccc1COc1ccccc1C [Compound B] | 90% | – | 40%

— patent publication US6451790B1, “Azadioxacycloalkenes and their use for combating harmful fungi and animal pests” (BASF Aktiengesellschaft, priority 1999, dated 2002)
